Target: T1, choline kinase (CK) [EC 2.7.1.32] (Saccharomyces cerevisiae, UniProt P20485)
T1 sequence (P20485 2-582): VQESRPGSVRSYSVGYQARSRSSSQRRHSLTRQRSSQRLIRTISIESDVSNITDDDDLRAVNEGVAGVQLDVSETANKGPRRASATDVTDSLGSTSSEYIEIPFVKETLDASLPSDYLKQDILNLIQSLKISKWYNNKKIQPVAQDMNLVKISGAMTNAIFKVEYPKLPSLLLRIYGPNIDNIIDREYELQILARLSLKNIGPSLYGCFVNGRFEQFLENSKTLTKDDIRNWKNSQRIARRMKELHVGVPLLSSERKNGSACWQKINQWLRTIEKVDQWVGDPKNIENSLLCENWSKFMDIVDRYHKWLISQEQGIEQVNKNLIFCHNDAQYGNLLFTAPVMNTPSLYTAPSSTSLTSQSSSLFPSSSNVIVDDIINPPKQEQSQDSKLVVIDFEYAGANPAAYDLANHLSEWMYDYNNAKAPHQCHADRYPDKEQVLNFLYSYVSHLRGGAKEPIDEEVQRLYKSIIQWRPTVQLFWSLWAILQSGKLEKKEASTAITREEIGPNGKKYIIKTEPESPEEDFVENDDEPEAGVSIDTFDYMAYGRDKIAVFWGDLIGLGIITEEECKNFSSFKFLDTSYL
Assay: 1H NMR
Type: biochemical

IC50: < 0.5 µM
SMILES: CN1CC[C@H](c2c(O)cc(O)c3c(=O)cc(-c4ccccc4Cl)oc23)[C@H](O)C1 [flavopiridol]
